Data taken from US20240269170A1, “Treatment of Inflammatory Conditions or Diseases” (Queen Mary University of London, priority 2021, published 2024).

Tested on: K/B×N serum induced arthritis in mice
Test: K/B×N serum transfer inflammatory arthritis, MCTR3 given immediately after disease onset
Assay type: in vivo, mouse
Protocol: FIG. 7: MCTR3 limits joint inflammation. Mice were administered K/B×N serum on days 0 and 2 and then treated with MCTR3 (100 ng/mouse) or Vehicle (PBS+0.1% EtOH) on days 3 and 5. Disease course was evaluated by assessing (A) clinical scores. (B-C) On day 7 joints were collected and disease severity was evaluated using (B) H&E Staining and (C) glycosaminoglycan content was assessed using Safranin-O staining, arrows denote Safranin-O staining in cartilage. Results for A are presented as mean±SEM. Statistical differences for A were evaluated using Two-Way ANOVA. n=4 mice per group. IFP=intrapatellar fat, M=meniscus, TB=Tibia, PF=Pannus formation, Red arrows denote leukocyte infiltration. (D-E) Lipid mediator profiles were determined using LC-MS/MS-based lipid mediator profiling and evaluated using PLS-DA. (D) scores plot with highlighted regions denoting the clusters representing cells from each group and (E) VIP scores for top 15 mediators. Each dot in the score plot represents a separate mouse.
For this purpose, we employed a serum transfer model of inflammatory arthritis, which relies on the activation of the innate immune system replicating the effector phase of rheumatoid arthritis (Korganow et al., 1999, Immunity 10, 451-461). […] We next evaluated whether MCTR3 administration also regulated the joint lipid mediator profile. Using partial least square discriminant analysis, which produces a regression model built using concentrations of lipid mediators differently expressed between the two groups, we found a shift in joint lipid mediator concentrations in mice treated with MCTR3. This shift was linked with a downregulation of pro-inflammatory and nociceptive eicosanoids including PGE2 and PGF2a and an upregulation of pro-resolving and anti-nociceptive mediators such as MaR1 and PDX (FIG. 7D,E).
All samples were extracted using solid-phase extraction columns as in (Gomez et al., 2020, Nat Commun 11, 5420). In brief, samples were placed in ice-cold methanol containing deuterated internal standards (d8-5S-HETE, d4-LTB4, d5-LXA4, d4-PGE2, d5-RvD2, d5-MaR1, d5-MaR2, d5-RvD3, d4-RvE1, d5-17R-RvD1, d5-LTC4, d5-LTD4 and d5-LTE4) representing each chromatographic region of identified LM. Following protein precipitation (−20° C. for a minimum of 45 min), samples were centrifuged and supernatants extracted using an ExtraHera System (Biotage) using solid-phase extraction with Isolute C18 500 mg columns (Biotage). Methyl formate and methanol fractions were collected, brought to dryness and resuspended in phase (methanol/water, 1:1, vol/vol) for injection on a Shimadzu LC-20AD HPLC and a Shimadzu SIL-20AC autoinjector, paired with a QTrap 5500 or QTrap 6500^+ (Sciex). In the analysis of mediators eluted in the methyl formate fraction, an Agilent Poroshell 120 EC-C18 column (100 mm×4.6 mm×2.7 μm) was kept at 50° C. and mediators eluted using a mobile phase consisting of methanol/water/acetic acid of 20:80:0.01 (vol/vol/vol) that was ramped to 50:50:0.01 (vol/vol/vol) over 0.5 min and then to 80:20:0.01 (vol/vol/vol) from 2 min to 11 min, maintained till 14.5 min and then rapidly ramped to 98:2:0.01 (vol/vol/vol) for the next 0.1 min. This was subsequently maintained at 98:2:0.01 (vol/vol/vol) for 5.4 min, and the flow rate was maintained at 0.5 ml/min. QTrap 5500 was operated in negative ionization mode using a multiple reaction monitoring method. […]

[1] = 100 ng/mouse on days 3 and 5, LC-MS/MS, PLS-DA
[2] = 100 ng/mouse on days 3 and 5, joints day 7

SMILES: CC/C=C\C/C=C\C[C@H](O)[C@@H](/C=C/C=C/C=C\C/C=C\CCC(=O)O)SC[C@H](N)C(=O)O [MCTR3, 13R-cysteinyl, 14S-hydroxy-4Z, 7Z, 9E, 11E, 13R, 14S, 16Z, 19Z-docosahexaenoic acid]
- joint pro-inflammatory and nociceptive eicosanoids including PGE2 and PGF2a [1]: downregulation
- joint pro-resolving and anti-nociceptive mediators such as MaR1 and PDX [1]: upregulation
- leukocyte infiltration (H&E) [2]: decrease
- safranin staining (glycosaminoglycan content in the cartilage) [2]: increased
- clinical scores (100 ng/mouse on days 3 and 5, vs vehicle): significant reduction
